In data set [1] the test system is Uveal melanoma cell lines, 92-1 or MP41. Description: 3-day growth inhibition compared with clinical PKC and MEK inhibitors (Cell-titer glow). In kind it is cell-based. The note with it: 0 to 10 μM, 3 days.
The target in another data set is T1, BRG1 (Homo sapiens, UniProt P51532).
T1 construct: made in house; host or cells: High Five insect cells
Put plainly: ATPase catalytic activity of BRG-1, in vitro biochemical assay using ADP-Glo. The note with it: 30 nM BRG-1, 400 μM ATP, 1 hour room temperature; read-out: IP50 against BRG1.

For data set [2], the system named is PKC inhibitor (PKCi)-resistant MP41 uveal melanoma cells. Put plainly: 7-day growth inhibition assay, PKC inhibitor-resistant cells. It counts as cell-based.
Data set [3] has as its system uveal melanoma, hematologic cancer, prostate cancer, breast cancer, and Ewing's sarcoma cell lines. The note with it: breast cancer and Ewing's sarcoma lines vs the other tested cell lines, 0 to 10 μM, FIG. 4.
Data set [4] relates to Uveal melanoma cell lines (92-1, MP41, MP38, MP46) and non-small cell lung cancer cells (NCIH1299). Description: 3-day growth inhibition (Cell-titer glow), Example 12. In kind it is cell-based. The note with it: 0 to 10 μM, 3 days; FIG. 6.
The subject of the next data set is parental MP41 cells. Description: 7-day growth inhibition assay, parental cells. The note with it: parental MP41, 7-day; FIG. 10.
Data set [5] has as its system 92-1 uveal melanoma cells. Put plainly: Uveal melanoma tumor growth inhibition in vivo, subcutaneous xenograft. Also on record: species or system Nude mice.
A further data set relates to 22RV1. Description: 3-day growth inhibition (Cell-titer glow), 22RV1. It counts as cell-based. The note with it: Homo sapiens, 72 h; 22RV1, Prostate, 3 days; read-out: Absolute IC50.
Data set [6] in a line: Body weight and tolerability in tumor-bearing mice. In kind it is in vivo. The note with it: all treatments, once daily oral gavage, 3 weeks.
A further data set concerns MEL202. Description: 3-day growth inhibition (Cell-titer glow), MEL202. In kind it is cell-based. The note with it: 72 h; MEL202, Uveal melanoma, 3 days; read-out: Absolute IC50.
The next data set concerns EOL1. Description: 3-day growth inhibition (Cell-titer glow), EOL1. It counts as cell-based. The note with it: Homo sapiens, 72 h; EOL1, Acute myeloid leukemia, 3 days; read-out: Absolute IC50.
The next data set deals with 92-1. Put plainly: 3-day growth inhibition (Cell-titer glow), 92-1. The note with it: 72 h; 92-1, Uveal melanoma, 3 days; read-out: Absolute IC50. In kind it is cell-based.
In another data set the test system is MP41. Put plainly: 3-day growth inhibition (Cell-titer glow), MP41. It counts as cell-based. The note with it: 72 h; MP41, Uveal melanoma, 3 days; read-out: Absolute IC50.
For data set [7], the system named is uveal melanoma, prostate cancer, acute leukemia and histocytic lymphoma cell lines. Description: 3-day growth inhibition (Cell-titer glow), all cell lines of Example 17. In kind it is cell-based.
For the next data set, the system named is MP38. Description: 3-day growth inhibition (Cell-titer glow), MP38. In kind it is cell-based. The note with it: 72 h; MP38, Uveal melanoma, 3 days; read-out: Absolute IC50.
The next data set has as its system U937. Put plainly: 3-day growth inhibition (Cell-titer glow), U937. The note with it: Homo sapiens, U-937, 72 h; U937, Histiocytic lymphoma, 3 days; read-out: Absolute IC50. In kind it is cell-based.
Another data set concerns MP46. Description: 3-day growth inhibition (Cell-titer glow), MP46. It counts as cell-based. The note with it: 72 h; MP46, Uveal melanoma, 3 days; read-out: Absolute IC50.
For another data set, the system named is THP1. Put plainly: 3-day growth inhibition (Cell-titer glow), THP1. It counts as cell-based. The note with it: Homo sapiens, THP-1, 72 h; THP1, Acute monocytic leukemia, 3 days; read-out: Absolute IC50.

T1 sequence (P51532 whole entry): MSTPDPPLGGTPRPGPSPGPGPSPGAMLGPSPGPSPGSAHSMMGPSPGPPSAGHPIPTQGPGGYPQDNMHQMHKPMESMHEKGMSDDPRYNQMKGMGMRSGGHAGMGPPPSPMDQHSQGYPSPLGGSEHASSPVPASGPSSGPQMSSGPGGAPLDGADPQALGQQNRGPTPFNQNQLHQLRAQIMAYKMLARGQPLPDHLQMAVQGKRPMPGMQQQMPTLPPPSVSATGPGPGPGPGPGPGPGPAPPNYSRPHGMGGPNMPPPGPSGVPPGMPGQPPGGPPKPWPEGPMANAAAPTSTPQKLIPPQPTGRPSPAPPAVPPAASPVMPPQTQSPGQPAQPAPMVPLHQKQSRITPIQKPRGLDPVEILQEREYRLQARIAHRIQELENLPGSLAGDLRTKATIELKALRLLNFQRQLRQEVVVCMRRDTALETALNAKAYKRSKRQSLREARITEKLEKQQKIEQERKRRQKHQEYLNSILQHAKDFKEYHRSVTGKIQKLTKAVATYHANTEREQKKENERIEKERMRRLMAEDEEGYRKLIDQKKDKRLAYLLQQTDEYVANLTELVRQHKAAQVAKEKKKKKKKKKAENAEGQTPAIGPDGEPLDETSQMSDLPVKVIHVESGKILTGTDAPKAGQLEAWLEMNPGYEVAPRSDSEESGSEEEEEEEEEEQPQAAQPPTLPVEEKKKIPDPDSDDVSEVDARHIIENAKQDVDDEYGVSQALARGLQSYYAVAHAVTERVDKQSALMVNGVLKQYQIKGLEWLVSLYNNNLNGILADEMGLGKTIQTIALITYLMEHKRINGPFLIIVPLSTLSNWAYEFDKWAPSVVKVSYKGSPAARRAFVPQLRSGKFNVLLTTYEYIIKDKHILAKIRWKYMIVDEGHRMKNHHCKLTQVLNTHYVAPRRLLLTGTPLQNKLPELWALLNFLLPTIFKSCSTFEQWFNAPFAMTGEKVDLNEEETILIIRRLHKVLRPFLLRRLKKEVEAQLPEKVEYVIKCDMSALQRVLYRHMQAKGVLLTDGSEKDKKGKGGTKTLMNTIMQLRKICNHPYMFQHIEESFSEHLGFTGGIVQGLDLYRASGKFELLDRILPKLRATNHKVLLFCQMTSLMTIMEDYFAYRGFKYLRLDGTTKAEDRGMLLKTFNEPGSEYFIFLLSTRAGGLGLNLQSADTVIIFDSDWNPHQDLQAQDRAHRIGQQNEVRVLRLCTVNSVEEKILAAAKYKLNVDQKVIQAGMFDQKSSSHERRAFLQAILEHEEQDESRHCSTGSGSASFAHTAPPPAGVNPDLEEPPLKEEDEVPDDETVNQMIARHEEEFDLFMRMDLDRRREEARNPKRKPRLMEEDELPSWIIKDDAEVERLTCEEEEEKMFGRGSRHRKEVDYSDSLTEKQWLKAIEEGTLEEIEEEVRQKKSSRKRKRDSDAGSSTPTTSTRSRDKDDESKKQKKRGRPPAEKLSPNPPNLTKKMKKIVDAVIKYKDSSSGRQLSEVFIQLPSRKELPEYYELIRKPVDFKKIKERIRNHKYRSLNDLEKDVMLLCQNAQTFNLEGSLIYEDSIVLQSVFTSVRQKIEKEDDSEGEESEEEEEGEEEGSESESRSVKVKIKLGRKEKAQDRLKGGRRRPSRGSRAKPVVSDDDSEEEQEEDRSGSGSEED

Take `CSOC[C@H](NC(=O)c1ccc(N)cc1)C(=O)Nc1nc(-c2cccc(-c3ccncc3)c2)cs1` [Compound A]: in data set [1], the “growth inhibition compared with the clinical PKC (LXS196) and MEK (Selumetinib) inhibitors” value is “comparable growth inhibition”; the “onset of growth inhibition compared with the clinical PKC and MEK inhibitors” value is “faster onset of inhibition”. Moreover, the IC50 at BRG1 is 19.3 nM.
For `CSCC[C@H](NC(=O)c1ccn(S(C)(=O)=O)c1)C(=O)Nc1nc(-c2cccc(-c3ccncc3)c2)cs1` [Compound B], the “growth inhibition compared with the clinical PKC (LXS196) and MEK (Selumetinib) inhibitors” value in data set [1] is reported as “more potent effects on growth inhibition”. Also, the “onset of growth inhibition compared with the clinical PKC and MEK inhibitors” value in data set [1] is listed as “faster onset of growth inhibition”. For the same compound, the growth inhibition entry in data set [2] (PKCi-resistant MP41, 7-day, FIG. 10) is reported as “strong growth inhibition”; in data set [4], “potent growth inhibition”; in the data set with parental MP41 cells it was “strong growth inhibition”. Moreover, the “sensitivity of cell lines to BRG1/BRM inhibition” value in data set [3] is recorded as “more sensitive”.
With `CC1(N)CCN(c2cccnc2NC(=O)c2nc(-c3ncccc3C(F)(F)F)cnc2N)CC1` [LXS196, reference compound], in [2] (7-day, FIG. 9 and FIG. 10), the “sensitivity of PKCi-resistant cells relative to parental MP41 cells” value is listed as “could tolerate growth at higher concentrations”.
`COC[C@H](NC(=O)c1ccn(S(C)(=O)=O)c1)C(=O)Nc1nc(-c2cccc(N3C[C@@H](C)O[C@@H](C)C3)n2)cs1` [N—((S)-1-((4-(6-(cis-2,6-dimethylmorpholino)pyridin-2-yl)thiazol-2-yl)amino)-3-methoxy-1-oxopropan-2-yl)-1-(methylsulfonyl)-1H-pyrrole-3-carboxamide]: in data set [5] ([…] once daily oral gavage), the “tumor response at the highest dose” value is listed as “tumor regression”. Besides, the tumor growth inhibition entry in data set [5] (once daily oral gavage, increasing doses, 3 weeks) is “tumor growth inhibition in a dose-dependent manner”. Moreover, the IC50 in the data set with 22RV1 was 29.7 nM; with MEL202 it was 62.3 nM; with EOL1, 75.5 nM; in the data set with 92-1, 0.3 nM; in the data set with MP41 it was 11.8 nM; in data set [7] (72 h, 3 days of compound treatment, read-out: absolute IC50 values, all cell lines tested), below 350 nM. The IC50 with MP38 stood at 31.5 nM; with U937 it was 14.8 nM; with MP46, 113 nM; in the data set on THP1 it was 345 nM. Moreover, the tolerability entry in [6] is reported as “well tolerated”. The growth inhibition entry in data set [7] (3 days, 0 to 2 μM (uveal melanoma lines) or 0 to 1 μM (other lines), FIG. 14) is recorded as “potent growth inhibition”.

These data come from patent US20240374605A1, “METHODS OF TREATING CANCER” (Foghorn Therapeutics Inc., priority 2021, published 2024).
